Test results from patent US20230372313A1, “METHODS FOR REDUCING GLYCOSPHINGOLIPID CONCENTRATION IN BRAIN TISSUE AND METHODS OF TREATMENT OF NEURODEGENERATIVE DISEASES INVOLVING THE SAME” (GENZYME CORPORATION, priority 2020, published 2023).
Read-outs that look alike come from different tables or passages of the source.

Assay: Plasma pharmacokinetics of Compound 2 in PD participants (LC-MS/MS)
Type: in vivo, human
Procedure: Participants were randomised to 3 doses of once-daily orally administered Compound 2 or placebo, in sequential cohort design, and were followed up to 36 weeks (52 weeks for Japanese participants). Participants in the low-dose group received 4 mg of Compound 2 as a once daily oral dose; participants in the mid-dose group received 8 mg of Compound 2 a once daily oral dose; and participants in the high-dose group received 15 mg of Compound 2 a once daily oral dose.
Analyses were based on all available data from participants who enrolled in part 1 of the trial and were randomised to receive either Compound 2 or placebo for up to 52 weeks for Japanese participants and 36 weeks for the ROW population. As part 1 was an exploratory, dose-escalation study, the sample size was not based on a statistical power calculation. Participants included in the primary safety analyses were those who were randomized and received at least one dose of Compound 2 or placebo. A data monitoring committee was responsible for overseeing the safety of patients and the risk/benefit ratio throughout the study. Duration of exposure to Compound 2 was different among the doses, as per the sequential cohort design, with the low- and high-dose cohorts commencing the study first and last, respectively. For pharmacokinetics, plasma parameters were calculated using noncompartmental methods, from plasma Compound 2 concentrations obtained after single dose administration. AUC0-24 and AUC0-48 were calculated using the trapezoidal method over a predefined time period of 24 hours or 48 hours, respectively. CLss/F was calculated using the following equation: CLss/F=Dose/AUCτ, where τ is the dosing interval. For pharmacodynamics, percent reduction of plasma or CSF GL-1 from baseline was calculated as (value−baseline)/baseline×100. Formal statistical testing was not conducted on MDS-UPDRS scale assessments.
The secondary outcome was to evaluate the pharmacokinetic profile of Compound 2 in plasma and cerebrospinal fluid (CSF) over a 4-week period. Plasma pharmacokinetic parameters included maximum plasma concentration (Cmax), time to Cmax (tmax), and area under the plasma concentration versus time curve from 0 to 24 h (AUC0-24). All parameters were assessed at Week 0 and Week 4 after treatment. In addition, AUC0-48 was assessed at Week 0, trough plasma concentration observed just before treatment administration during repeated dosing (Ctrough) was assessed at Weeks 2, 4, and 8 (FIG. 3), and total systemic clearance from plasma at steady state (CLSS/F) was assessed at Week 4. Plasma samples were collected at 1 hour pre-dose and 1, 2, 4, 8, 24, and 48 hours postdose. Compound 2 concentration in plasma was determined using a liquid chromatography tandem mass spectrometry method with a lower limit of quantification of 0.500 ng/mL. CSF samples were collected by lumbar puncture during the screening period (within 14 days prior to randomisation) or on the day of randomisation, and at Week 4, within 2 to 4 hours postdose. Compound 2 concentration in CSF was determined using a liquid chromatography tandem mass spectrometry method with a lower limit of quantification of 0.100 ng/mL.

CC(C)(NC(=O)O[C@@H]1CN2CCC1CC2)c1csc(-c2ccc(F)cc2)n1 [Compound 2, (S)-quinuclidin-3-yl (2-(2-(4-fluorophenyl)thiazol-4-yl)propan-2-yl)carbamate]
increase of Compound 2 concentration in plasma with dose (Japanese and ROW cohorts, 4, 8, 15 mg): close to dose-proportional manner
Tmax (human, plasma, oral, plasma, Week 4, Japanese participants, across all doses tested, read-out: median tmax values): 2.1 to 4.33 h
Tmax (human, plasma, oral, plasma, Week 4, ROW participants, across all doses tested, read-out: median tmax values): 1.96 to 3.55 h
Cmax at 4 weeks (human, plasma, po, 4 mg, Week 4, Japan, Low 4 mg once daily oral, n = 3): 56.3 ng/mL
AUC(0-t) (human, plasma, po, 4 mg, plasma, Day 1, Japan, Low 4 mg oral, n = 3, read-out: AUC0-24, Geometric mean): 390 ng·h/mL
AUC(0-t) (human, plasma, po, 4 mg, plasma, Day 1, Japan, Low 4 mg oral, n = 3, read-out: AUC0-24, mean): 393 ng·h/mL
AUC(0-t) (human, plasma, po, 4 mg, plasma, Day 1, Japan, Low 4 mg oral, n = 3, read-out: AUC0-48, Geometric mean): 660 ng·h/mL
AUC(0-t) (human, plasma, po, 4 mg, plasma, Day 1, Japan, Low 4 mg oral, n = 3, read-out: AUC0-48, mean): 661 ng·h/mL
Cmax (human, plasma, po, 4 mg, plasma, Day 1, Japan, Low 4 mg oral, n = 3, read-out: Cmax, Geometric mean): 21.7 ng/mL
Cmax (human, plasma, po, 4 mg, plasma, Day 1, Japan, Low 4 mg oral, n = 3, read-out: Cmax, mean): 21.8 ng/mL
Tmax (human, plasma, po, 4 mg, plasma, Day 1, Japan, Low 4 mg oral, n = 3, read-out: tmax, median): 4.33 h
AUC(0-t) (human, plasma, po, 4 mg, plasma, Day 1, ROW, Low 4 mg oral, n = 4, read-out: AUC0-24, Geometric mean): 249 ng·h/mL
AUC(0-t) (human, plasma, po, 4 mg, plasma, Day 1, ROW, Low 4 mg oral, n = 4, read-out: AUC0-24, mean): 255 ng·h/mL
AUC(0-t) (human, plasma, po, 4 mg, plasma, Day 1, ROW, Low 4 mg oral, n = 4, read-out: AUC0-48, Geometric mean): 419 ng·h/mL
AUC(0-t) (human, plasma, po, 4 mg, plasma, Day 1, ROW, Low 4 mg oral, n = 4, read-out: AUC0-48, mean): 431 ng·h/mL
Cmax (human, plasma, po, 4 mg, plasma, Day 1, ROW, Low 4 mg oral, n = 4, read-out: Cmax, Geometric mean): 13.6 ng/mL
Cmax (human, plasma, po, 4 mg, plasma, Day 1, ROW, Low 4 mg oral, n = 4, read-out: Cmax, mean): 13.8 ng/mL
Tmax (human, plasma, po, 4 mg, plasma, Day 1, ROW, Low 4 mg oral, n = 4, read-out: tmax, median): 4.07 h
AUC(0-t) (human, plasma, po, 4 mg, plasma, Week 4, Japan, Low 4 mg once daily oral, n = 1, read-out: AUC0-24, Geometric mean): 1130 ng·h/mL
AUC(0-t) (human, plasma, po, 4 mg, plasma, Week 4, Japan, Low 4 mg once daily oral, n = 1, read-out: AUC0-24, mean): 1130 ng·h/mL
Cmax (human, plasma, po, 4 mg, plasma, Week 4, Japan, Low 4 mg once daily oral, n = 3, read-out: Cmax, Geometric mean): 56.2 ng/mL
Tmax (human, plasma, po, 4 mg, plasma, Week 4, Japan, Low 4 mg once daily oral, n = 3, read-out: tmax, median): 4.33 h
AUC(0-t) (human, plasma, po, 4 mg, plasma, Week 4, ROW, Low 4 mg once daily oral, n = 4, read-out: AUC0-24, Geometric mean): 763 ng·h/mL
AUC(0-t) (human, plasma, po, 4 mg, plasma, Week 4, ROW, Low 4 mg once daily oral, n = 4, read-out: AUC0-24, mean): 766 ng·h/mL
Cmax (human, plasma, po, 4 mg, plasma, Week 4, ROW, Low 4 mg once daily oral, n = 4, read-out: Cmax, Geometric mean): 41 ng/mL
Cmax (human, plasma, po, 4 mg, plasma, Week 4, ROW, Low 4 mg once daily oral, n = 4, read-out: Cmax, mean): 41.6 ng/mL
Tmax (human, plasma, po, 4 mg, plasma, Week 4, ROW, Low 4 mg once daily oral, n = 4, read-out: tmax, median): 1.96 h
AUC(0-t) (human, plasma, po, 8 mg, plasma, Day 1, Japan, Mid 8 mg oral, n = 3, read-out: AUC0-24, Geometric mean): 596 ng·h/mL
AUC(0-t) (human, plasma, po, 8 mg, plasma, Day 1, Japan, Mid 8 mg oral, n = 3, read-out: AUC0-24, mean): 623 ng·h/mL
AUC(0-t) (human, plasma, po, 8 mg, plasma, Day 1, Japan, Mid 8 mg oral, n = 3, read-out: AUC0-48, Geometric mean): 1070 ng·h/mL
AUC(0-t) (human, plasma, po, 8 mg, plasma, Day 1, Japan, Mid 8 mg oral, n = 3, read-out: AUC0-48, mean): 1130 ng·h/mL
Cmax (human, plasma, po, 8 mg, plasma, Day 1, Japan, Mid 8 mg oral, n = 3, read-out: Cmax, Geometric mean): 29.9 ng/mL
Cmax (human, plasma, po, 8 mg, plasma, Day 1, Japan, Mid 8 mg oral, n = 3, read-out: Cmax, mean): 31.3 ng/mL
Tmax (human, plasma, po, 8 mg, plasma, Day 1, Japan, Mid 8 mg oral, n = 3, read-out: tmax, median): 4.02 h
AUC(0-t) (human, plasma, po, 8 mg, plasma, Day 1, ROW, Mid 8 mg oral, n = 5, read-out: AUC0-24, Geometric mean): 422 ng·h/mL
AUC(0-t) (human, plasma, po, 8 mg, plasma, Day 1, ROW, Mid 8 mg oral, n = 5, read-out: AUC0-24, mean): 457 ng·h/mL
AUC(0-t) (human, plasma, po, 8 mg, plasma, Day 1, ROW, Mid 8 mg oral, n = 5, read-out: AUC0-48, Geometric mean): 735 ng·h/mL
AUC(0-t) (human, plasma, po, 8 mg, plasma, Day 1, ROW, Mid 8 mg oral, n = 5, read-out: AUC0-48, mean): 776 ng·h/mL
Cmax (human, plasma, po, 8 mg, plasma, Day 1, ROW, Mid 8 mg oral, n = 5, read-out: Cmax, Geometric mean): 23.8 ng/mL
Cmax (human, plasma, po, 8 mg, plasma, Day 1, ROW, Mid 8 mg oral, n = 5, read-out: Cmax, mean): 26.3 ng/mL
Tmax (human, plasma, po, 8 mg, plasma, Day 1, ROW, Mid 8 mg oral, n = 5, read-out: tmax, median): 4.17 h
AUC(0-t) (human, plasma, po, 8 mg, plasma, Week 4, Japan, Mid 8 mg once daily oral, n = 3, read-out: AUC0-24, Geometric mean): 1620 ng·h/mL
AUC(0-t) (human, plasma, po, 8 mg, plasma, Week 4, Japan, Mid 8 mg once daily oral, n = 3, read-out: AUC0-24, mean): 1650 ng·h/mL
Cmax (human, plasma, po, 8 mg, plasma, Week 4, Japan, Mid 8 mg once daily oral, n = 3, read-out: Cmax, Geometric mean): 82.8 ng/mL
Tmax (human, plasma, po, 8 mg, plasma, Week 4, Japan, Mid 8 mg once daily oral, n = 3, read-out: tmax, median): 2.12 h
AUC(0-t) (human, plasma, po, 8 mg, plasma, Week 4, ROW, Mid 8 mg once daily oral, n = 5, read-out: AUC0-24, Geometric mean): 1490 ng·h/mL
AUC(0-t) (human, plasma, po, 8 mg, plasma, Week 4, ROW, Mid 8 mg once daily oral, n = 5, read-out: AUC0-24, mean): 1510 ng·h/mL
Cmax (human, plasma, po, 8 mg, plasma, Week 4, ROW, Mid 8 mg once daily oral, n = 5, read-out: Cmax, Geometric mean): 75.8 ng/mL
Cmax (human, plasma, po, 8 mg, plasma, Week 4, ROW, Mid 8 mg once daily oral, n = 5, read-out: Cmax, mean): 77.8 ng/mL
Tmax (human, plasma, po, 8 mg, plasma, Week 4, ROW, Mid 8 mg once daily oral, n = 5, read-out: tmax, median): 3.55 h
